Measurements published in ChEMBL document CHEMBL5241058, “Pyrazole-based analogs as potential antibacterial agents against methicillin-resistance staphylococcus aureus (MRSA) and its SAR elucidation” (Eur J Med Chem, 2021).
Converted amounts (≈) assume the structure as drawn.

The compounds below were run on Staphylococcus aureus (assay: Antimicrobial activity against Methicillin-resistant Staphylococcus aureus assessed as bacterial growth inhibition). Conditions: not given.
Type: functional
O=C1CN(c2nnc(-c3cccc(Br)c3)s2)C(c2cn(-c3ccccc3)nc2-c2cccc([N+](=O)[O-])c2)S1 (stereo not drawn) was tested, and the MBC was 156 µg/mL (≈ 258 µM).
With Cn1ncc2c3c(C#N)c4ccc(Br)cc4nc3ccc21 the MIC was 2 µg/mL (≈ 5.93 µM).
For CCCn1ncc2c3c(C#N)c4ccccc4nc3ccc21, the MIC was 3 µg/mL (≈ 10.5 µM).
Compound Cn1ncc2c3c(C#N)c4ccccc4nc3ccc21 has an MIC of 6 µg/mL (≈ 23.2 µM).
With CC(C)Cn1ncc2c3c(C#N)c4ccc(Br)cc4nc3ccc21 the MIC was 6 µg/mL (≈ 15.8 µM).
Cc1cc(NS(=O)(=O)c2ccc(N)cc2)no1 [SULFAMETHOXAZOLE] gave an MIC of 16 µg/mL (≈ 63.2 µM).
In the case of CCCCn1ncc2c3c(C#N)c4ccccc4nc3ccc21, the MIC is reported as 2 µg/mL (≈ 6.66 µM).
Work on CC1(C)S[C@@H]2[C@H](NC(=O)Cc3ccccc3)C(=O)N2[C@H]1C(=O)O [PENICILLIN G] yielded an MIC of 0.06 µg/mL (≈ 0.179 µM).
Compound CCn1ncc2c3c(C#N)c4ccccc4nc3ccc21 has an MIC of 3 µg/mL (≈ 11 µM).
Work on CCCn1ncc2c3c(C#N)c4ccc(Br)cc4nc3ccc21 yielded an MIC of 1 µg/mL (≈ 2.74 µM).
With CC1(C)S[C@@H]2[C@H](NC(=O)[C@H](N)c3ccccc3)C(=O)N2[C@H]1C(=O)O [AMPICILLIN] the MIC was 62 µg/mL (≈ 177 µM).
CCn1ncc2c3c(C#N)c4ccc(Br)cc4nc3ccc21 was tested, and the MIC was 2 µg/mL (≈ 5.69 µM).
With O=C1CN(c2nnc(-c3cccc([N+](=O)[O-])c3)s2)C(c2cn(-c3ccccc3)nc2-c2cccc([N+](=O)[O-])c2)S1 (stereo not drawn) the MBC was 312 µg/mL (≈ 547 µM).

These compounds were tested on Staphylococcus aureus (assay: Antimicrobial activity against Methicillin-resistant Staphylococcus aureus CCARM 3506 assessed as bacterial growth inhibition incubated for 24 hrs by ELISA assay). Conditions: not given.
Type: functional
Cc1nn(-c2ccc(Cl)cc2Cl)c(Oc2cccc(Cl)c2)c1C1N=C(N)NC(NCCc2ccccc2)=N1 (stereo not drawn) was tested, and the MIC was 0.5 µg/mL (≈ 0.879 µM).
In the case of Cc1nn(-c2ccc(Cl)cc2Cl)c(Oc2ccc(Br)cc2)c1C1N=C(N)NC(NCCc2ccccc2)=N1 (stereo not drawn), the MIC is reported as 0.5 µg/mL (≈ 0.815 µM).
Work on Cc1nn(-c2ccc(Cl)cc2Cl)c(Oc2cccc(Br)c2)c1C1N=C(N)NC(NCCc2ccccc2)=N1 (stereo not drawn) yielded an MIC of 0.5 µg/mL (≈ 0.815 µM).
In the case of COc1cc(Cc2cnc(N)nc2N)cc(OC)c1OC [TRIMETHOPRIM], the MIC is reported as 4 µg/mL (≈ 13.8 µM).
Work on Cc1ccc(Oc2c(C3N=C(N)NC(NCCc4ccccc4)=N3)c(C)nn2-c2ccc(Cl)cc2Cl)cc1 (stereo not drawn) yielded an MIC of 0.5 µg/mL (≈ 0.912 µM).
With Cc1nn(-c2ccc(Cl)cc2Cl)c(Oc2ccc(Cl)cc2)c1C1N=C(N)NC(NCCc2ccccc2)=N1 (stereo not drawn) the MIC was 0.5 µg/mL (≈ 0.879 µM).
Work on Cc1ccc(Oc2c(C3N=C(N)NC(NCCc4ccccc4)=N3)c(C)nn2-c2ccc(Cl)cc2Cl)c(C)c1 (stereo not drawn) yielded an MIC of 0.5 µg/mL (≈ 0.889 µM).
Compound Cc1nn(-c2ccc(Cl)cc2Cl)c(Oc2cccc(C(F)(F)F)c2)c1C1N=C(N)NC(NCCc2ccccc2)=N1 (stereo not drawn) has an MIC of 0.5 µg/mL (≈ 0.83 µM).
Cc1nn(-c2ccc(Cl)cc2Cl)c(Oc2ccc3ccccc3c2)c1C1N=C(N)NC(NCCc2ccccc2)=N1 (stereo not drawn) was tested, and the MIC was 0.5 µg/mL (≈ 0.855 µM).

The compounds below were run on Staphylococcus aureus (assay: Antimicrobial activity against Methicillin-resistant Staphylococcus aureus assessed as bacterial growth inhibition incubated for 24 to 48 hrs by microdilution method). Conditions: time 24-48 hrs.
Type: functional
NC(=O)c1cnn(-c2ccc([N+](=O)[O-])cc2[N+](=O)[O-])c1NC(=O)c1ccc([N+](=O)[O-])cc1 was tested, and the MIC was 4 µg/mL (≈ 9.06 µM).
NC(=O)c1cnn(-c2ccc([N+](=O)[O-])cc2[N+](=O)[O-])c1NC(=O)c1cccc(Cl)c1 showed an MIC of 45.3 µg/mL (≈ 105 µM).
Compound COc1ccc(C(=O)Nc2c(C(N)=O)cnn2-c2ccc([N+](=O)[O-])cc2[N+](=O)[O-])cc1 has an MIC of 10 µg/mL (≈ 23.5 µM).
Cc1ccc(C(=O)Nc2c(C(N)=O)cnn2-c2ccc([N+](=O)[O-])cc2[N+](=O)[O-])cc1 gave an MIC of 42 µg/mL (≈ 102 µM).
CC1=C(C(=O)O)N2C(=O)[C@@H](NC(=O)[C@H](N)c3ccccc3)[C@H]2SC1 [CEPHALEXIN ANHYDROUS] was tested, and the MIC was 72 µg/mL (≈ 207 µM).
NC(=O)c1cnn(-c2ccc([N+](=O)[O-])cc2[N+](=O)[O-])c1NC(=O)c1ccc(Br)cc1 was tested, and the MIC was 29.4 µg/mL (≈ 61.9 µM).
Compound CC[C@H]1OC(=O)[C@H](C)[C@@H](O[C@H]2C[C@@](C)(OC)[C@@H](O)[C@H](C)O2)[C@H](C)[C@@H](O[C@@H]2O[C@H](C)C[C@H](N(C)C)[C@H]2O)[C@](C)(O)C[C@@H](C)C(=O)[C@H](C)[C@@H](O)[C@]1(C)O [ERYTHROMYCIN] has an MIC of 32 µg/mL (≈ 43.6 µM).
In the case of CC(=O)Nc1c(C(N)=O)cnn1-c1ccc([N+](=O)[O-])cc1[N+](=O)[O-], the MIC is reported as 99.4 µg/mL (≈ 297 µM).
Cc1onc(-c2ccccc2Cl)c1C(=O)N[C@@H]1C(=O)N2[C@@H]1SC(C)(C)[C@@H]2C(=O)O [CLOXACILLIN] was tested, and the MIC was 94 µg/mL (≈ 216 µM).
With NC(=O)c1cnn(-c2ccc([N+](=O)[O-])cc2[N+](=O)[O-])c1NC(=O)c1ccc(Cl)cc1 the MIC was 39 µg/mL (≈ 90.5 µM).
For NC(=O)c1cnn(-c2ccc([N+](=O)[O-])cc2[N+](=O)[O-])c1NC(=O)c1ccccc1, the MIC was 75.3 µg/mL (≈ 190 µM).
